The text below walks through data of patent US9585876B2 (NuSirt Sciences, Inc., priority 2013, dated 2017).

For data set [1] the following is noted: oral dosing of about 3,000 mg; cited from earlier work.
Data set [2] concerns LDL receptor knockout (LDLRKO) mice. Briefly: Plasma total cholesterol, cholesterol esters and triglycerides in LDLRKO mice on western diet, 28 days (Example 7). It counts as in vivo. Here is the method:
The mice were provided free access to an atherogenic western diet (WD) containing 0.21% cholesterol (by weight) and 40% calories from fat and water for 4 weeks prior to treatment. […] The treatments were administered for 28 days continuously.
Blood samples of the mice in all groups were obtained from tails of the mice at day 28 after the administration. The serum/plasma levels of triglyceride, total cholesterol and cholesterol esters were measured.

Data set [3] has as its system C. elegans. Description: Lifespan of C. elegans (Example 8). It counts as in vivo, Caenorhabditis elegans. Particulars: leucine (0.5 mM) or nicotinic acid (10 nM), each alone. Here is the method: Eggs were hatched on a starved plate overnight. […] To study lifespan, 50 young adult worms were placed on NGM agar plates seeded with E. coli strain OP-50 (=day 1 of study). All treatments were added with the indicated concentrations to the agar plates. […] The worms were maintained at 21° C. throughout the duration of the study. Worms were transferred to new plates daily to eliminate progeny. […] The study was continued until the last animal was dead. Data were analyzed via Kaplan-Meier survival curves using Prism 6 (GraphPad Software) and statistical significance was determined by the Log-rank (Mantel-Cox) test.

The subject of data set [4] is AMPK. Particulars: 3T3-L1 adipocytes; concentrations of nicotinic acid <100 nM alone. On the procedure:
3T3-L1 preadipocytes (American Type Culture Collection) were plated at a density of 8000 cells/cm2 (10 cm2 dish) and grown in Dulbecco's modified eagle's medium (DMEM) containing 10% fetal bovine serum (FBS), and antibiotics (growth medium) at 37° C. in 5% CO2. […] Preadipocytes were maintained in this differentiation medium for 3 days and subsequently cultured in growth medium. Cultures were re-fed every 2-3 days to allow >90% cells to reach fully differentiation before conducting chemical treatment.
Western blotting was performed with antibodies against AMPK and Phospho-AMPKα (Thr172) obtained from Cell Signaling (Danvers, Mass.). […] Total 30 μg of protein from the cell lysate was resolved on 10% Tris/HCL polyacrylamide gels (Criterion precast gel, Bio-Rad Laboratories, Hercules, Calif.), transferred to PVDF membranes, incubated in blocking buffer (3% BSA in TBS), incubated with primary antibody (P-AMPK), washed and incubated with secondary horseradish peroxidase-conjugated antibody.

The test system of data set [5] is LDL receptor knockout (LDLRKO) mice. Briefly: Lipid levels, atherosclerotic plaque and cutaneous vasodilation in LDLRKO mice on atherogenic diet, 60 days (Example 4). Particulars: for HDL level in the blood stream compared to negative control group (atherogenic diet only) / triglyceride, LDL and cholesterol levels in the blood stream compared to negative control group (atherogenic diet only): 60 days. It is filed as in vivo. Here is the method: All chemicals are purchased from Sigma.
Cutaneous vasodilation is measured by laser-Doppler flowmeter.

Data set [6] has as its system Patients that are pre-diagnosed with hyperlipidemia. Description: Lipid levels and cutaneous vasodilation in hyperlipidemia patients, 60 days (Example 5). It counts as in vivo, human. As to conditions: for HDL level compared to day 0 values / triglyceride, LDL and cholesterol levels compared to day 0 values: orally twice a day, 60 days. On the procedure: Patients that are pre-diagnosed with hyperlipidemia are admitted for the randomized and double blind study. […] The treatments are administered orally twice a day, for 60 days continuously.
Blood samples of the patients in all groups are obtained from at day 0, 30 and 60 after the administration. The serum/plasma levels of triglyceride, cholesterol, LDL and HDL are measured. Cutaneous vasodilation is measured by laser-Doppler flowmeter and the discomfort level described by the patients.

Data set [7] deals with Patients that experience acute chest pain and are pre-diagnosed with hyperlipidemia. Briefly: Atherosclerotic plaque size by quantitative coronary angiography in patients, 3 years (Example 6). It is filed as in vivo, human. Particulars: orally twice a day, (a) 50 mg nicotinic acid alone, (b) 50 mg nicotinic acid + 1135 mg leucine, (c) 50 mg nicotinic acid + 1135 mg leucine + 50 mg resveratrol, (d) 1135 mg leucine + 50 mg resveratrol. Here is the method: The treatments are administered orally twice a day, for 3 years continuously. The size of atherosclerotic plaque is measured at day 0, months 6, 12, 18, 24, 30 and 36 by quantitative coronary angiography.

The test system of data set [8] is Sirt1. Briefly: Sirt1 level by Western blotting in C2C12 myotubes (Example 1). A general note: In western blotting, separated proteins are transferred to a membrane and probed.
The mark [9] stands for this setting: group (e) 10 g nicotinic acid/kg diet alone.
Setting [10] is: group (e) 3000 mg nicotinic acid alone.

On to `NC(=O)c1ccc[n+]([C@@H]2O[C@H](CO)[C@@H](O)[C@H]2O)c1` [nicotinamide riboside], for which, in data set [1], the “circulating level of nicotinic acid or nicotinamide riboside in a subject” value was “about 10 μM”.

Consider `CC(C)C[C@H](N)C(=O)O` [leucine], for which, in data set [2] (leucine 24 g/kg diet alone), the “effect on cholesterol esters” value is on record as “no independent effect” and the “effect on total cholesterol” value is reported as “no independent effect”. Further, the effect on lifespan result in data set [3] is “no independent effect”.

With `O=C(O)c1cccnc1` [nicotinic acid], in data set [4], the “effect of nicotinic acid alone on the variable studied (P-AMPK/AMPK), dose-response study” value was “no effect”. Moreover, in data set [5] (10 g of nicotinic acid/kg diet alone, laser-Doppler flowmeter), the “cutaneous vasodilation compared to all the other groups including control groups” value was “significant higher”. In addition, the “HDL level in the blood stream compared to negative control group (atherogenic diet only)” value is listed as “significantly higher” in data set [5] (setting [9]) and “similar, without statistically significant difference” in data set [5] (per kg diet: (a) 250 mg nicotinic acid alone, (b) 250 mg nicotinic acid + 24 g leucine, (c) 50 mg nicotinic acid + 24 g leucine + 12.5 mg resveratrol). Moreover, the “triglyceride, LDL and cholesterol levels in the blood stream compared to negative control group (atherogenic diet only)” value is “significantly lower” in data set [5] (setting [9]) and “similar, without statistically significant difference” in data set [5] (per kg diet: (a) 250 mg nicotinic acid alone, (b) 250 mg nicotinic acid + 24 g leucine, (c) 50 mg nicotinic acid + 24 g leucine + 12.5 mg resveratrol, (d) 24 g leucine + 12.5 mg resveratrol). Further, the “atherosclerotic lesion size in the aorta” value in data set [5] (day 60, group (e) 10 g nicotinic acid/kg diet alone) is given as “significantly reduced”; in data set [5] (day 60, per kg diet: (a) 250 mg nicotinic acid alone, (b) 250 mg nicotinic acid + 24 g leucine, (c) 50 mg nicotinic acid + 24 g leucine + 12.5 mg resveratrol, (d) 24 g leucine + 12.5 mg resveratrol), “No significant reduction”. Also, the “cutaneous vasodilation compared to all the other groups including placebo” value in data set [6] (3000 mg of nicotinic acid alone, laser-Doppler flowmeter and discomfort level) is “significant higher”. Besides, the “HDL level compared to day 0 values” in data set [6] ((a) 50 mg nicotinic acid alone, (b) 50 mg nicotinic acid + 1135 mg leucine, (c) 50 mg nicotinic acid + 1135 mg leucine + 50 mg resveratrol) is given as “similar, without statistically significant difference”; in data set [6] (setting [10]), “significantly higher”. For the same compound, the “triglyceride, LDL and cholesterol levels compared to day 0 values” in data set [6] ((a) 50 mg nicotinic acid alone, (b) 50 mg nicotinic acid + 1135 mg leucine, (c) 50 mg nicotinic acid + 1135 mg leucine + 50 mg resveratrol, (d) 1135 mg leucine + 50 mg resveratrol) is reported as “similar, without statistically significant difference”; in data set [6] (setting [10]) it was “significantly lower”. Further, the “atherosclerotic plaque (lesion) size compared to day 0 values” in data set [7] was “similar, without statistically significant difference”. In addition, the “decrease in cholesterol esters” value in data set [2] (nicotinic acid 1,000 mg/kg diet, p<0.002) is recorded as 28%. Also, the “decrease in total cholesterol” value in data set [2] (nicotinic acid 1,000 mg/kg diet, p<0.01) turned out to be 20%. Also, in data set [3], the effect on lifespan result is on record as “no independent effect”. Besides, the “circulating level of nicotinic acid or nicotinamide riboside in a subject” value in data set [1] is recorded as “about 10 μM”. For the same compound, in data set [8] (24 hours, nicotinic acid 10 nM, leucine 0.5 mM, nicotinic acid alone), the Sirt1 levels entry is “did not have a significant effect”. Also, the “effect of nicotinic acid alone on the variable studied (Sirt1), dose-response study” value in data set [8] (concentrations of nicotinic acid <100 nM alone) is given as “no effect”.
